The structures appear in SMILES notation.

The IC50 is the point on the concentration scale where inhibition reaches its midpoint.

Assay [1] concerns the target T1, PIP4K2A (full length protein, SignalChem) (Homo sapiens, UniProt P48426).
T1 construct: 4 nM PIP4K2A (full length protein, SignalChem); purchased SignalChem
T1 sequence (P48426 1-406): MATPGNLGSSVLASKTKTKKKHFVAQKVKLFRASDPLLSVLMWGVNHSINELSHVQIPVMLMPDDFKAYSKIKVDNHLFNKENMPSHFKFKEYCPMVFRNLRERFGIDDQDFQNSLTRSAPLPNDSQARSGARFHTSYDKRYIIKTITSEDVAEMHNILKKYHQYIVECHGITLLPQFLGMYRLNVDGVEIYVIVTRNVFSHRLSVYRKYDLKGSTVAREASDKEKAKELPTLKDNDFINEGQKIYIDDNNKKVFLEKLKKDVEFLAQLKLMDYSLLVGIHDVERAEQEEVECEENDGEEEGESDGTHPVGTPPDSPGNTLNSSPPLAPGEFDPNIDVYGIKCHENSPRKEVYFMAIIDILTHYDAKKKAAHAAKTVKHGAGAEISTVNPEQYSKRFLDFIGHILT
The assay can be described thus: Kinase Assay PIP4K2 A (Sprint); ADP-Glo biochemical assay. Particulars: Table 2; compounds listed under IC50 range headings. How it is done: Dilution series of the compounds were prepared in DMSO at 100 times the final assay concentration (n1=n0/3 in 10 points). The compounds were further diluted to three times the assay concentration in assay buffer (20 mM MOPS pH 7.2, 25 mM magnesium chloride, 0.005% Tween 20). 6 μL of the diluted compounds were added to a 384 well assay plate followed by 9 μL of a mix consisting of 4 nM PIP4K2A (full length protein, SignalChem) and 100 μM PI(5)P diC8 (Tebu-Bio). Enzyme and compounds were pre-incubated at room temperature for 15 min.
Then 3 μL of a solution containing 60 μM ATP (Promega) in assay buffer was added to the wells containing compound and enzyme and mixing was performed by pipetting several times. The reaction was incubated at room temperature for 1 h. Then 18 μL of ADP-Glo™ Reagent (Promega) was added to stop the kinase reaction and deplete the unconsumed ATP, mixing was performed by pipetting several times. The plate was incubated at room temperature for 40 min before addition of 36 μL of Kinase Detection Reagent (Promega) to convert ADP to ATP and introduce luciferase and luciferin to detect ATP. The reaction was incubated at room temperature for 40 min before the luminescence was measured in a in a Victor 3V 1420 multilabel counter (Perkin Elmer).
Percent inhibition of the compounds as compared to dimethyl sulfoxide treated control samples was calculated. Compound concentration versus percent inhibition were fitted to generate IC50 values.
In general terms: ADP-Glo first removes unused ATP, then detects ADP through luciferase.

The next assay deals with T2, GST tagged PIP4KtypeIIB (Homo sapiens, UniProt P78356).
T2 construct: made in house; host or cells: E. coli
T2 sequence (P78356 1-416): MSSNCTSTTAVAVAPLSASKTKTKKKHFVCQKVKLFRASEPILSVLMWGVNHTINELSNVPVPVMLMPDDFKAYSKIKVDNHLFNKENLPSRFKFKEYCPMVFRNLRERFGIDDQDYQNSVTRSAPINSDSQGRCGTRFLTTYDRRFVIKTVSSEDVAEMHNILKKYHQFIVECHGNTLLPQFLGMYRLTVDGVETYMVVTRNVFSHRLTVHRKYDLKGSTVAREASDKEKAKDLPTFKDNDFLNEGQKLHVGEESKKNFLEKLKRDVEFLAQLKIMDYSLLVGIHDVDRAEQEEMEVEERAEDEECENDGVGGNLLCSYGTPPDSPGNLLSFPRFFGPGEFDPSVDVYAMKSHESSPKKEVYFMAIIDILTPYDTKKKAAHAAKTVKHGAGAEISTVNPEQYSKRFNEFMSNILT
As to the kind of experiment: Trans-FI P kinase assay PIP4K2B (PIP4KtypeIIB inhibition assay). The format is biochemical. Particulars: Table 4; compounds listed under IC50 range headings; 100 uM GTP, 5 nM PIP4KIIB; read-out: Trans-FI P kinase assays: PIP4K2B IC50. The text has this: GST tagged PIP4KtypeIIA and B enzymes were overexpressed in E. Coli and purified to >80% homogeneity. Phosphatidyl inositol-5-phosphate (PI5P, Cat. #850152, Avanti Polar Lipids Inc.) was used as the lipid substrate and phosphatidyl ethanolamine (DOPE 18:1, Cat. #850725, Avanti Polar Lipids Inc.) was used as the carrier lipid for assays. Ultrapure ATP and GTP was purchased from Bellbrooke Labs. ADP Glo reagents were obtained from Promega. Transcreener FI reagent was obtained from Bellbrooke labs.
1. HEPES buffer mix: 200 mM HEPES pH 7.4, 50 mM MgCl2, 0.05% v/v triton×100
2. HNE buffer: 20 mM HEPES, pH 7.4, 100 mM NaCl, 0.5 mM EGTA
3. H:E buffer: 30 mM HEPES, pH 7.4, 1 mM EGTA
GST-tagged PIP4KtypeIIB (3.4 uL, 2.77 mg/mL) was diluted to 5 mL using HNE buffer to yield 5× enzyme stock (25 nM)
Lipid Preparation: In a 10 mL pyrex glass vial, lug of PI5P and lug of DOPE were suspended in 2.5 mL of HEPES buffer mix and 2.5 mL of H:E buffer. The contents were mixed and sonicated for 3 min to yield a translucent lipid stock.
Compound Preparation: Compounds were stored as 5 mM stocks in neat DMSO as room temperature in glass vials. 5 mM stocks were diluted to 2 mM and then serially diluted (3×) in neat DMSO in 96 well polypropylene plates. From the serially diluted stocks, 3 uL was delivered into 250 uL of 25% DMSO (in water) to generate 5× compound stocks. Typically, the highest compound conc. was 24 uM.
The assay volume was kept at 25 uL. To each well of the reaction plate, 10 uL of lipid stock (1:1 ratio PI5P:DOPE) was delivered. This was followed by the addition of 5 uL of compound in 25% DMSO. Then, to each well, 5 uL of 25 nM (5×) typeIIB enzyme was delivered. The contents were mixed well and incubated for 1 h at 27 C. After 1 h, reaction was initiated by adding 5 uL of 500 uM GTP and the contents were mixed well with a multi-channel pipetteman. The final concentration of the reagents are as follows: 50 mM HEPES, pH 7.3, 10 mM MgCl2, 20 mM NaCl, 0.01% v/v triton-X100, 5% DMSO, 100 uM GTP, 80 uM (2 ug) PI5P, 2 ug DOPE, and 5 nM PIP4KIIB Typically, the highest conc. of compounds was 4.8 uM and the lowest conc. was 0.
After 2 h, the reaction was quenched by adding 25 uL of transcreener FI reagent. The contents were incubated at RT for 1 h and the Fluorescence (Ex: 584 Em: 623) was read using Molecular Devices Paradigm plate reader. […] The blanks were averaged and subtracted from all other wells. Using a calibration curve, RFU was converted to uM GDP (product). IC50 was calculated by plotting the residual activity (expressed as % No inhibitor control) vs. log [Inh. conc.] Table 2 represents PI5P4K activity of compounds (Example No.) of the invention arranged in accordance with the inhibition of PIP4K2 A kinase assay.

Turning to `CN(C)C(=O)c1ccc(-c2cc(-c3cnc4c(c3)c(-c3cccnc3)cn4C)cnc2N)nc1` [Example 121, 2′-amino-N,N-dimethyl-5′-(1-methyl-3-(pyridin-3-yl)-1H-pyrrolo[2,3-b]pyridin-5-yl)-[2,3′-bipyridine]-5-carboxamide], the IC50 (in assay [1]; on GST tagged PIP4KtypeIIB) was 100 to 1000 nM in each case.
Consider `CN(C)C(=O)c1ccc(-c2cc(-c3cnc4c(c3)c(-c3cncnc3)cn4C)cnc2N)nc1` [Example 122, 2′-amino-N,N-dimethyl-5′-(1-methyl-3-(pyrimidin-5-yl)-1H-pyrrolo[2,3-b]pyridin-5-yl)-[2,3′-bipyridine]-5-carboxamide], for which the figures for the IC50 (in assay [1]; on GST tagged PIP4KtypeIIB) were 100 to 1000 nM and 1000 to 2500 nM, respectively.
For the compound `O=C(c1cc2c(-c3cncc(-c4ccc(N5CCCC5=O)cc4)c3)ccnc2[nH]1)N1CCCC(O)(C2CC2)C1` (stereo not drawn) [Example 210, 1-(4-(5-(2-(3-cyclopropyl-3-hydroxypiperidine-1-carbonyl)-1H-pyrrolo[2,3-b]pyridin-4-yl)pyridin-3-yl)phenyl)pyrrolidin-2-one], the half-maximal inhibitory concentration (IC50) (in assay [1]; on GST tagged PIP4KtypeIIB) was 100 to 1000 nM in each case.
`COC(=O)c1cc2c(-c3cncc(-c4ccc(-c5nncn5C(C)C)cc4)c3)ccnc2[nH]1` [Example 211, methyl 4-(5-(4-(4-isopropyl-4H-1,2,4-triazol-3-yl)phenyl)pyridin-3-yl)-1H-pyrrolo[2,3-b]pyridine-2-carboxylate]: the IC50 fell in the range of 5 to 100 nM in assay [1] and 1 to 10 nM on GST tagged PIP4KtypeIIB.
The matching figures for `CN1CCn2c(cc3c(-c4cncc(-c5ccc(C(=O)N6CCC7(CC7)C6)cc5)c4)ccnc32)C1=O` [Example 230, 4-(5-(4-(5-azaspiro[2.4]heptane-5-carbonyl)phenyl)pyridin-3-yl)-7-methyl-8,9-dihydropyrido[3′,2′:4,5]pyrrolo[1,2-a]pyrazin-6(7H)-one]: 100 to 1000 nM and 100 to 1000 nM.
Regarding `O=C(NCc1cccc2c1COB2O)c1cc2c(-c3cncc(-c4ccc(N5CCCC5=O)cc4)c3)ccnc2[nH]1` [Example 301, N-((1-hydroxy-1,3-dihydrobenzo[c][1,2]oxaborol-4-yl)methyl)-4-(5-(4-(2-oxopyrrolidin-1-yl)phenyl)pyridin-3-yl)-1H-pyrrolo[2,3-b]pyridine-2-carboxamide], the IC50 in assay [1] fell in the range of 5 to 100 nM; at GST tagged PIP4KtypeIIB it was 10 to 100 nM.
As to `C[C@@H]1CCC(=O)N1c1ccc(-c2cncc(-c3ccnc4c3cc3n4CCN(C)C3=O)c2)cc1` [Example 306, (R)-7-methyl-4-(5-(4-(2-methyl-5-oxopyrrolidin-1-yl)phenyl)pyridin-3-yl)-8,9-dihydropyrido[3′,2′:4,5]pyrrolo[1,2-a]pyrazin-6(7H)-one], the IC50 in assay [1] lay in the range of 5 to 100 nM; on GST tagged PIP4KtypeIIB, 1 to 10 nM.
For `Cc1noc2nccc(-c3cncc(-c4ccc(N5CCCC5=O)cc4)c3)c12` [Example 307, 1-(4-(5-(3-methylisoxazolo[5,4-b]pyridin-4-yl)pyridin-3-yl)phenyl)pyrrolidin-2-one], the IC50 in assay [1] is 1000 to 2500 nM; on GST tagged PIP4KtypeIIB, 100 to 1000 nM.
The matching figures for `O=C1CCCN1c1ccc(-c2cncc(-c3ccnc4c3cc3n4CCN(c4ccc5c(n4)OCCO5)C3=O)c2)cc1` [Example 308, 7-(2,3-dihydro-[1,4]dioxino[2,3-b]pyridin-6-yl)-4-(5-(4-(2-oxopyrrolidin-1-yl)phenyl)pyridin-3-yl)-8,9-dihydropyrido[3′,2′:4,5]pyrrolo[1,2-a]pyrazin-6(7H)-one]: 100 to 1000 nM and 1 to 10 nM.
`Cc1c[nH]c2nccc(-c3cnc(N)c(-c4ccc(N5CCCC5=O)cc4)c3)c12` [Example 309, 1-(4-(2-amino-5-(3-methyl-1H-pyrrolo[2,3-b]pyridin-4-yl)pyridin-3-yl)phenyl)pyrrolidin-2-one]: the values for the IC50 (in assay [1]; at GST tagged PIP4KtypeIIB) were 100 to 1000 nM and 10 to 100 nM, respectively.
Take `CN(C(=O)c1cc2c(-c3cncc(-c4ccc(N5CCCC5=O)cc4)c3)ccnc2[nH]1)c1cccnc1` [Example 310, N-methyl-4-(5-(4-(2-oxopyrrolidin-1-yl)phenyl)pyridin-3-yl)-N-(pyridin-3-yl)-1H-pyrrolo[2,3-b]pyridine-2-carboxamide]: the half-maximal inhibitory concentration (IC50) (in assay [1]; at GST tagged PIP4KtypeIIB) was 100 to 1000 nM in each case.
Regarding `CN(C(=O)c1cc2c(-c3cncc(-c4ccc(N5CCCC5=O)cc4)c3)ccnc2[nH]1)c1ccccc1` [Example 311, N-methyl-4-(5-(4-(2-oxopyrrolidin-1-yl)phenyl)pyridin-3-yl)-N-phenyl-1H-pyrrolo[2,3-b]pyridine-2-carboxamide], the IC50 in assay [1] is 1000 to 2500 nM; at GST tagged PIP4KtypeIIB, 100 to 1000 nM.
The matching figures for `O=C(Nc1ccccn1)c1cc2c(-c3cncc(-c4ccc(N5CCCC5=O)cc4)c3)ccnc2[nH]1` [Example 312, 4-(5-(4-(2-oxopyrrolidin-1-yl)phenyl)pyridin-3-yl)-N-(pyridin-2-yl)-1H-pyrrolo[2,3-b]pyridine-2-carboxamide]: 1000 to 2500 nM and 10 to 100 nM.
Turning to `CNC(=O)c1[nH]c2nccc(-c3cncc(-c4ccc(N5CCCC5=O)cc4)c3)c2c1C` [Example 313, N,3-dimethyl-4-(5-(4-(2-oxopyrrolidin-1-yl)phenyl)pyridin-3-yl)-1H-pyrrolo[2,3-b]pyridine-2-carboxamide], the half-inhibitory concentration (IC50) in assay [1] was in the range of 1000 to 2500 nM; on GST tagged PIP4KtypeIIB it was 100 to 1000 nM.
Take `O=C(Nc1ccncc1)c1cc2c(-c3cncc(-c4ccc(N5CCCC5=O)cc4)c3)ccnc2[nH]1` [Example 314, 4-(5-(4-(2-oxopyrrolidin-1-yl)phenyl)pyridin-3-yl)-N-(pyridin-4-yl)-1H-pyrrolo[2,3-b]pyridine-2-carboxamide]: the IC50 in assay [1] was in the range of 1000 to 2500 nM; at GST tagged PIP4KtypeIIB it was 10 to 100 nM.
